A short description of data set [1]: Inhibition of bacterial recombinant full length C-terminal-TEV-His6-tagged VIM-1 expressed in Escherichia coli Transetta using FC-5 as substrate preincubated with enzyme for 10 mins followed by substrate addition by fluorescence based analysis. Further details: species or system Bacteria.
Data set [2] relates to Escherichia coli. Put plainly: Potentiation of meropenem-induced antibacterial activity against Escherichia coli C1542 expressing VIM-2 assessed as fold reduction in meropenem MIC at 10 ug/ml incubated for 18 to 20 hrs by CLSI based broth microtiter dilution method. The format is functional. Particulars: dose 10 µg/ml; time 18-20 hrs.
Data set [3] is described as follows: Inhibition of bacterial VIM-2 (27 to 266 residues) expressed in Escherichia coli Transetta (DE3) using FC-5 as substrate preincubated with enzyme for 10 mins followed by substrate addition in presence of 100 uM Zn2+ by fluorescence based analysis. Further details: species or system Bacteria.
In data set [4] the test system is Pseudomonas aeruginosa. Put plainly: Potentiation of meropenem-induced antibacterial activity against Pseudomonas aeruginosa W35 expressing VIM-2 assessed as meropenem MIC at 100 ug/ml incubated for 18 to 20 hrs in presence of meropenem by CLSI based broth microtiter dilution method (reference value: 64 ug/ml). The note with it: dose 100 µg/ml, time 18-20 hrs. The format is functional.

The subject of data set [5] is Pseudomonas aeruginosa. Put plainly: Potentiation of meropenem-induced antibacterial activity against Pseudomonas aeruginosa 5621 expressing VIM-2 assessed as meropenem MIC at 100 ug/ml incubated for 18 to 20 hrs in presence of meropenem by CLSI based broth microtiter dilution method (reference value: 64 ug/ml). Particulars: dose 100 µg/ml, time 18-20 hrs. The format is functional.

In data set [6] the test system is Escherichia coli. Description: Potentiation of meropenem-induced antibacterial activity against Escherichia coli C1541 expressing IMP-1 assessed as meropenem MIC at 10 ug/ml incubated for 18 to 20 hrs by broth microtiter dilution method (reference value: 32 ug/ml). The format is functional. The note with it: dose 10 µg/ml, time 18-20 hrs.
Data set [7] is described as follows: Inhibition of bacterial VIM-2 (27 to 266 residues) expressed in Escherichia coli Transetta (DE3) using FC-5 as substrate preincubated with enzyme for 10 mins followed by substrate addition by fluorescence based analysis. Further details: species or system Bacteria.
Data set [8] deals with Escherichia coli. Put plainly: Potentiation of meropenem-induced antibacterial activity against Escherichia coli C1580 expressing VIM-2 assessed as fold reduction in meropenem MIC at 10 ug/ml incubated for 18 to 20 hrs by CLSI based broth microtiter dilution method. Format: functional. Particulars: dose 10 µg/ml; time 18-20 hrs.
Data set [9] has as its system Escherichia coli. Description: Synergistic antibacterial activity against Escherichia coli C1541 expressing VIM-2 assessed as fractional inhibitory concentration index incubated for 18 to 20 hrs in presence of meropenem by checkerboard microdilution assay. The format is functional. The note with it: time 18-20 hrs.
Data set [10] has as its system Escherichia coli. Put plainly: Potentiation of meropenem-induced antibacterial activity against Escherichia coli C1541 expressing VIM-2 assessed as fold reduction in meropenem MIC at 10 ug/ml incubated for 18 to 20 hrs by CLSI based broth microtiter dilution method. Format: functional. The note with it: dose 10 µg/ml; time 18-20 hrs.
A short description of data set [11]: Inhibition of bacterial recombinant full length N-terminal-TEV-His6-tagged VIM-5 expressed in Escherichia coli Transetta using FC-5 as substrate preincubated with enzyme for 10 mins followed by substrate addition by fluorescence based analysis. Further details: species or system Bacteria.
In data set [12] the test system is Escherichia coli. Description: Potentiation of meropenem-induced antibacterial activity against Escherichia coli C1580 expressing VIM-2 assessed as meropenem MIC at 10 ug/ml incubated for 18 to 20 hrs by CLSI based broth microtiter dilution method (reference value: 32 ug/ml). Particulars: dose 10 µg/ml, time 18-20 hrs. The format is functional.
Data set [13] deals with Escherichia coli. Put plainly: Synergistic antibacterial activity against Escherichia coli C1541 expressing VIM-2 assessed as fractional inhibitory concentration index incubated for 18 to 20 hrs in presence of meropenem and 100 uM of zinc sulfate by checkerboard microdilution assay. The format is functional. The note with it: time 18-20 hrs.
In data set [14] the test system is Escherichia coli. Description: Potentiation of meropenem-induced antibacterial activity against Escherichia coli C1541 expressing IMP-1 assessed as fold reduction in meropenem MIC at 100 ug/ml incubated for 18 to 20 hrs by CLSI based broth microtiter dilution method. The format is functional. The note with it: dose 100 µg/ml; time 18-20 hrs.
The subject of data set [15] is Escherichia coli. Put plainly: Potentiation of meropenem-induced antibacterial activity against Escherichia coli C1541 expressing IMP-1 assessed as fold reduction in meropenem MIC at 10 ug/ml incubated for 18 to 20 hrs by CLSI based broth microtiter dilution method. The format is functional. The note with it: dose 10 µg/ml; time 18-20 hrs.
Data set [16] has as its system Escherichia coli. Put plainly: Synergistic antibacterial activity against Escherichia coli C1541 expressing VIM-2 assessed as fractional inhibitory concentration index incubated for 18 to 20 hrs in presence of meropenem and 1 uM of zinc sulfate by checkerboard microdilution assay. The format is functional. The note with it: time 18-20 hrs. For orientation: Broth dilution looks for growth in wells or tubes with falling amounts of substance.

Data set [17] relates to Escherichia coli. Put plainly: Potentiation of meropenem-induced antibacterial activity against Escherichia coli C1542 expressing VIM-2 assessed as meropenem MIC at 10 ug/ml incubated for 18 to 20 hrs by CLSI based broth microtiter dilution method (reference value: 16 ug/ml). The format is functional. The note with it: dose 10 µg/ml, time 18-20 hrs.
Data set [18] is described as follows: Inhibition of bacterial NDM-1 (1 to 270 residues) expressed in Escherichia coli Transetta (DE3) using FC-5 as substrate preincubated with enzyme for 10 mins followed by substrate addition by fluorescence based analysis. Also on record: species or system Bacteria.
In data set [19] the test system is Pseudomonas aeruginosa. Description: Potentiation of meropenem-induced antibacterial activity against Pseudomonas aeruginosa W35 expressing VIM-2 assessed as fold reduction in meropenem MIC at 100 ug/ml incubated for 18 to 20 hrs by CLSI based broth microtiter dilution method. The note with it: dose 100 µg/ml; time 18-20 hrs. The format is functional.
In data set [20] the test system is Escherichia coli. Put plainly: Potentiation of meropenem-induced antibacterial activity against Escherichia coli C1541 expressing VIM-2 assessed as meropenem MIC at 10 ug/ml incubated for 18 to 20 hrs by CLSI based broth microtiter dilution method (reference value: 16 ug/ml). Particulars: dose 10 µg/ml, time 18-20 hrs. The format is functional.
Data set [21] concerns Pseudomonas aeruginosa. Put plainly: Potentiation of meropenem-induced antibacterial activity against Pseudomonas aeruginosa 5621 expressing VIM-2 assessed as fold reduction in meropenem MIC at 100 ug/ml incubated for 18 to 20 hrs by CLSI based broth microtiter dilution method. Format: functional. The note with it: dose 100 µg/ml; time 18-20 hrs.
A short description of data set [22]: Inhibition of bacterial IMP-1 (1 to 246 residues) expressed in Escherichia coli Transetta (DE3) using FC-5 as substrate preincubated with enzyme for 10 mins followed by substrate addition by fluorescence based analysis. Further details: species or system Bacteria.
The nature of data set [23]: Inhibition of bacterial VIM-2 (27 to 266 residues) expressed in Escherichia coli Transetta (DE3) using FC-5 as substrate preincubated with enzyme for 10 mins followed by substrate addition in presence of 1 uM Zn2+ by fluorescence based analysis. Further details: species or system Bacteria.
Data set [24] can be described thus: Solubility of the compound in water. Format: physicochemical.
For data set [25], the system named is Pseudomonas aeruginosa. Put plainly: Synergistic antibacterial activity against Pseudomonas aeruginosa W35 expressing VIM-2 assessed as fractional inhibitory concentration index incubated for 18 to 20 hrs in presence of meropenem by checkerboard microdilution assay. Format: functional. The note with it: time 18-20 hrs.

The structures appear in SMILES notation.

By IC50 is commonly meant the midpoint of a concentration-inhibition curve. Broadly, the MIC is the smallest concentration in the dilution series that meets the test's criterion for growth inhibition. For the compound `O=C(O)c1nccn1Cc1cc(Br)cc(Br)c1`, the IC50 in [1] worked out at 1370 nM; in [3], 110 nM; in data set [7], 14 nM; in [11] it was 53 nM; in data set [18], 98900 nM; in data set [22], 85 nM. Moreover, in data set [23], the concentration for half-maximal inhibition (IC50) turned out to be 48 nM. Moreover, the “fold change (FC)” value in data set [2] is reported as 16; in [8], 8; in data set [10] it was 32; in data set [14] it was 8; in [15], 2; in data set [19], 4. Further, the “fold change (FC)” value in [21] is 2. Moreover, the MIC amounted to 16 µg/mL in data set [4]; 32 µg/mL in data set [5]; 16 µg/mL in data set [6]; 4 µg/mL in [12]; 1 µg/mL in data set [17]; 0.5 µg/mL in data set [20]. Further, the “fractional inhibitory concentration index (FICI)” value in data set [9] came out at 0.05; in data set [13], 0.06; in data set [16] it was 0.06.

The term solubility denotes how much of the substance goes into solution per volume. High values mean a readily soluble substance, low ones a poorly soluble substance. Take `Nc1nc2ccc(Cn3ccnc3C(=O)O)cc2s1`: the IC50 in data set [1] stood at 13600 nM; in data set [3], 76 nM; in [7], 19 nM; in [11] it was 380 nM; in data set [18], 178000 nM; in data set [22] it was 14400 nM. Further, the IC50 in [23] was 14 nM. For the same compound, the solubility in data set [24] is less than 2500 µg/mL. The “fold change (FC)” value in data set [2] is reported as more than 64; in data set [8], more than 128; in data set [10] it was more than 64; in data set [15], 1; in data set [19] it was 4; in data set [21], 1. Besides, the MIC in [4] was 16 µg/mL; in data set [5], 64 µg/mL; in data set [6], 32 µg/mL; in data set [12], less than 0.25 µg/mL; in data set [17], less than 0.25 µg/mL; in data set [20], less than 0.25 µg/mL. Moreover, the “fractional inhibitory concentration index (FICI)” value in [9] amounted to 0.02; in [13], 0.03; in data set [25] it was 0.125; in data set [16], 0.02.

For the origin of these results see ChEMBL document CHEMBL5154646, “Structure-guided optimization of 1H-imidazole-2-carboxylic acid derivatives affording potent VIM-Type metallo-β-lactamase inhibitors” (Eur J Med Chem, 2022).
